The record followed here is PubChem BioAssay AID2060893 (Molecular Pharmacology Branch, DTP, NCI, 2025).

Where “and” joins values, the source holds several entries; their conditions need not be identical. Equal values may be shown once. Where only a bound is given, the exact number is not on record here.

This experiment relates to K86415-001-R-J1-PDC complex spheroids, viability. The experiment in a line: Anticancer human tumor K86415-001-R-J1-PDC patient-derived lung adenocarcinoma cell line growth inhibition [RAS]. The settings on record: for viability, T/C: stronger effect = lower value. The gist of the method:
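Agents were tested in combination matrices in half-log decrements from a top concentration at or near clinical Cmax (10 microM if undetermined). Targets were multi-cell spheroids of tumour lines plus HUVEC and MSC stromal cells.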

Setting [1] is: curve of first compound, second compound 0.0316 µM.
[2] abbreviates: curve of first compound, second compound 0.1 µM.
Where [3] appears, read: curve of first compound, second compound 0.316 µM.
Where [4] appears, read: curve of first compound, second compound 1 µM.
Setting [5] is: curve of first compound, second compound 3.16 µM.
Where [6] appears, read: curve of first compound, second compound 10 µM.
Where [7] appears, read: second compound 0.0316 µM, first compound 0.0316 µM.
The mark [8] stands for this setting: second compound 0.0316 µM, first compound 0.1 µM.
Where [9] appears, read: second compound 0.0316 µM, first compound 0.316 µM.
The mark [10] stands for this setting: second compound 0.0316 µM, first compound 1 µM.
Setting [11] is: second compound 0.1 µM, first compound 0.0316 µM.
[12] abbreviates: second compound 0.1 µM, first compound 0.1 µM.
Setting [13] is: second compound 0.1 µM, first compound 0.316 µM.
The mark [14] stands for this setting: second compound 0.1 µM, first compound 1 µM.
[15] abbreviates: second compound 0.316 µM, first compound 0.0316 µM.
Where [16] appears, read: second compound 0.316 µM, first compound 0.1 µM.
The mark [17] stands for this setting: second compound 0.316 µM, first compound 0.316 µM.
Where [18] appears, read: second compound 0.316 µM, first compound 1 µM.
The mark [19] stands for this setting: second compound 1 µM, first compound 0.0316 µM.
Where [20] appears, read: second compound 1 µM, first compound 0.1 µM.
The mark [21] stands for this setting: second compound 1 µM, first compound 0.316 µM.
The mark [22] stands for this setting: second compound 1 µM, first compound 1 µM.
[23] abbreviates: second compound 3.16 µM, first compound 0.0316 µM.
The mark [24] stands for this setting: second compound 3.16 µM, first compound 0.1 µM.
[25] abbreviates: second compound 3.16 µM, first compound 0.316 µM.
The mark [26] stands for this setting: second compound 3.16 µM, first compound 1 µM.
Where [27] appears, read: second compound 10 µM, first compound 0.0316 µM.
[28] abbreviates: second compound 10 µM, first compound 0.1 µM.
Where [29] appears, read: second compound 10 µM, first compound 0.316 µM.
[30] abbreviates: second compound 10 µM, first compound 1 µM.
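Further: spheroids exposed to agents for seven days before readout.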

With `C=CC(=O)Nc1cc(Nc2nccc(-c3cn(C)c4ccccc34)n2)c(OC)cc1N(C)CCN(C)C` + C#Cc1c(F)ccc2cc(O)cc(-c3ncc4c(N5CC6CCC(C5)N6)nc(OCC56CCCN5CC(F)C6)nc4c3F)c12, the IC50 was 0.493 µM under setting [1]; 0.287 µM under setting [2]; 0.191 µM under setting [3]; 0.0423 µM under setting [4]; less than 0.00316 µM under setting [5]; less than 0.00316 µM under setting [6]. The viability, T/C reads like this: (second compound 0.0316 µM, first compound 0.00316 µM) 95.1%; (second compound 0.0316 µM, first compound 0.01 µM) 99.4%; under setting [7], 88.3%; under setting [8], 73.1%; under setting [9], 58.4%; under setting [10], 38.9%. The viability, T/C by setting is: (second compound 0.1 µM, first compound 0.00316 µM) 84.5%; (second compound 0.1 µM, first compound 0.01 µM) 99.3%; under setting [11], 88.1%; under setting [12], 67.7%; under setting [13], 50.8%; under setting [14], 31.2%. Further, the viability, T/C is, setting by setting: (second compound 0.316 µM, first compound 0.00316 µM) 87.8%; (second compound 0.316 µM, first compound 0.01 µM) 92.3%; under setting [15], 72.3%; under setting [16], 56.1%; under setting [17], 46.1%; under setting [18], 21.8%. Further, the viability, T/C is 61.1% (second compound 1 µM, first compound 0.00316 µM); 59.2% (second compound 1 µM, first compound 0.01 µM); 52.9% under setting [19]; 40.8% under setting [20]; 24.2% under setting [21]; 14.4% under setting [22]. In addition, the viability, T/C is, setting by setting: (second compound 3.16 µM, first compound 0.00316 µM) 32.3%; (second compound 3.16 µM, first compound 0.01 µM) 33.8%; under setting [23], 27.2%; under setting [24], 20.4%; under setting [25], 13.6%; under setting [26], 9.53%. Besides, the viability, T/C by setting is: (second compound 10 µM, first compound 0.00316 µM) 30.3%; (second compound 10 µM, first compound 0.01 µM) 16.9%; under setting [27], 13.9%; under setting [28], 10.1%; under setting [29], 10.4%; under setting [30], 7%.
Take `CC(=O)OC12COC1CC(O)C1(C)C(=O)C(O)C3=C(C)C(OC(=O)C(O)C(NC(=O)OC(C)(C)C)c4ccccc4)CC(O)(C(OC(=O)c4ccccc4)C21)C3(C)C` (centres undefined) + C#Cc1c(F)ccc2cc(O)cc(-c3ncc4c(N5CC6CCC(C5)N6)nc(OCC56CCCN5CC(F)C6)nc4c3F)c12: the IC50 runs as follows: under setting [1], less than 0.0316 µM; under setting [2], less than 0.0316 µM; under setting [3], less than 0.0316 µM; under setting [4], less than 0.0316 µM; under setting [5], less than 0.0316 µM; under setting [6], less than 0.0316 µM. The viability, T/C is 29.3% under setting [7]; 30.7% under setting [8]; 32.6% under setting [9]; 30.9% under setting [10]; 37.5% (second compound 0.0316 µM, first compound 3.16 µM); 35.7% (second compound 0.0316 µM, first compound 10 µM). Further, the viability, T/C was 30.8% under setting [11]; 34.4% under setting [12]; 28.6% under setting [13]; 32% under setting [14]; 26.8% (second compound 0.1 µM, first compound 3.16 µM); 37% (second compound 0.1 µM, first compound 10 µM). Moreover, the viability, T/C is 32.2% under setting [15]; 29.9% under setting [16]; 27.4% under setting [17]; 28.9% under setting [18]; 29.2% (second compound 0.316 µM, first compound 3.16 µM); 28.8% (second compound 0.316 µM, first compound 10 µM). Also, the viability, T/C under setting [19] was 34.2%; the viability, T/C under setting [20] is 33.9%; the viability, T/C under setting [21] is 28.7%; the viability, T/C under setting [22] was 32.6%; the viability, T/C (second compound 1 µM, first compound 3.16 µM) was 25.9%; the viability, T/C (second compound 1 µM, first compound 10 µM) is 26.7%. The viability, T/C was 23.9% under setting [23]; 26.8% under setting [24]; 27.1% under setting [25]; 26.5% under setting [26]; 29.4% (second compound 3.16 µM, first compound 3.16 µM); 24.5% (second compound 3.16 µM, first compound 10 µM). The viability, T/C was 20.1% under setting [27]; 19.1% under setting [28]; 19.5% under setting [29]; 19.3% under setting [30]; 18.2% (second compound 10 µM, first compound 3.16 µM); 15.3% (second compound 10 µM, first compound 10 µM).
Turning to `O=C(c1ccc(F)c(F)c1Nc1ccc(I)cc1F)N1CC(O)([C@@H]2CCCCN2)C1`, the viability, T/C by setting is: (compound 0.00316 µM) 103% [middle of 4 runs]; (compound 0.01 µM) 90% [middle of 4 runs]; (compound 0.0316 µM) 59% [middle of 4 runs]; (compound 0.1 µM) 46% [middle of 4 runs]; (compound 0.316 µM) 22.4% [middle of 4 runs]; (compound 1 µM) 8.88% [middle of 4 runs]. Besides, the IC50 (curve of compound) was 68 nM [middle of 4 runs].
Consider `CCn1c(-c2cc(N3CCN(C)CC3)cnc2C(C)OC)c2c3cc(ccc31)-c1csc(n1)CC(NC(=O)C1CC1C)C(=O)N1CCCC(N1)C(=O)OCC(C)(C)C2` (centres undefined), for which the viability, T/C was 50.3% [middle of 8 runs] (compound 0.000949 µM); 22.4% [middle of 8 runs] (compound 0.003 µM); 10.2% [middle of 8 runs] (compound 0.00949 µM); 6.3% [middle of 8 runs] (compound 0.03 µM); 3.96% [middle of 8 runs] (compound 0.0949 µM); 3.36% [middle of 8 runs] (compound 0.3 µM).
`CCc1c2c(nc3ccc(O)cc13)-c1cc3c(c(=O)n1C2)COC(=O)[C@]3(O)CC`: the viability, T/C runs as follows: (compound 0.000949 µM) 102% (2×) and 97.3% and 88.2%; (compound 0.003 µM) 38.8% [middle of 4 runs]; (compound 0.00949 µM) 23.2% [middle of 4 runs]; (compound 0.03 µM) 17.6% [middle of 4 runs]; (compound 0.0949 µM) 13.3% [middle of 4 runs]; (compound 0.3 µM) 5.27% [middle of 4 runs]. Moreover, the IC50 (curve of compound) was 2.52 nM [middle of 4 runs].

As usually defined, the IC50 is the point on the concentration scale where inhibition reaches its midpoint. Usually viability, T/C stands for the result in the treated group divided by that in the control group, in per cent.
